Tests used:
Assay type in all cases: cell-based
[1] = system: human aggrecan; assay: Anabolic gene expression by quantitative real-time PCR in normal human primary chondrocytes: aggrecan
Procedure: (§1) […] These primary chondrocytes were passaged in vitro not more than 4 times, before being used for experiments. Cells were cultured in chondrocyte differentiation medium (Cambrex, #CC-3225) without or with substances for 4 hours. Total RNA was extracted from cultured cells and reverse-transcribed as described by Richard et al. Mol. Nutr. Food Res. 49, 431-442, 2005. Expression levels of distinct genes were determined by quantitative real-time PCR as detailed in Richard et al. Mol. Nutr. Food Res. 49, 431-442, 2005.

[2] = system: human SOX-5; assay: Anabolic gene expression by quantitative real-time PCR in normal human primary chondrocytes: SOX-5; details: normal human primary chondrocytes (HNAC-kn); 4 hours
Procedure: as §1

[3] = system: Human IL-R antagonist; assay: Anti-catabolic gene expression by quantitative real-time PCR in normal human primary chondrocytes: IL-R antagonist; details: normal human primary chondrocytes (HNAC-kn); 4 hours
Procedure: as §1

[4] = system: human SOX-6; assay: Anabolic gene expression by quantitative real-time PCR in normal human primary chondrocytes: SOX-6; details: normal human primary chondrocytes (HNAC-kn); 4 hours
Procedure: as §1

[5] = system: human COL2A1; assay: Anabolic gene expression by quantitative real-time PCR in normal human primary chondrocytes: COL2A1
Procedure: as §1

[6] = 12.5 microM OH-Tyrosol, normal human primary chondrocytes (HNAC-kn), 4 hours
[7] = in words, normal human primary chondrocytes

Compound: OCCc1ccc(O)c(O)c1 [OH-Tyrosol, 4-(2-hydroxylethyl)-1,2-benzenediol]
- level of gene expression, human aggrecan [1, 6]: 125 % of control-treated cells
- effect of compounds on gene expression, human aggrecan [1, 7]: substantially increased
- level of gene expression, human SOX-5 [2]: 130 % of control-treated cells
- level of gene expression, Human IL-R antagonist [3]: 113 % of control-treated cells
- level of gene expression, human SOX-6 [4]: 127 % of control-treated cells
- level of gene expression, human COL2A1 [5, 6]: 247 % of control-treated cells
- effect of compounds on gene expression, human COL2A1 (collagen II) [5, 7]: substantially increased
